Experimental data: ChEMBL document CHEMBL5465560, “Selectivity Literature for EUbOPEN Chemogenomic Library” (2024)
One block for each compound: values may come before it.

What was measured:
[1] = target: Tyrosine-protein kinase Lyn (Homo sapiens, UniProt P07948); assay: Selectivity interaction (KinomeScan (DiscoverX)) EUB0001619a LYN; conditions: at 1 µM
[2] = target: Protein polybromo-1 (Homo sapiens) (UniProt Q86U86); assay: Selectivity interaction (Bromodomain panel (DSF asssay)) EUB0000270b PBRM1
Protein polybromo-1 (Homo sapiens), sequence (Q86U86 whole entry): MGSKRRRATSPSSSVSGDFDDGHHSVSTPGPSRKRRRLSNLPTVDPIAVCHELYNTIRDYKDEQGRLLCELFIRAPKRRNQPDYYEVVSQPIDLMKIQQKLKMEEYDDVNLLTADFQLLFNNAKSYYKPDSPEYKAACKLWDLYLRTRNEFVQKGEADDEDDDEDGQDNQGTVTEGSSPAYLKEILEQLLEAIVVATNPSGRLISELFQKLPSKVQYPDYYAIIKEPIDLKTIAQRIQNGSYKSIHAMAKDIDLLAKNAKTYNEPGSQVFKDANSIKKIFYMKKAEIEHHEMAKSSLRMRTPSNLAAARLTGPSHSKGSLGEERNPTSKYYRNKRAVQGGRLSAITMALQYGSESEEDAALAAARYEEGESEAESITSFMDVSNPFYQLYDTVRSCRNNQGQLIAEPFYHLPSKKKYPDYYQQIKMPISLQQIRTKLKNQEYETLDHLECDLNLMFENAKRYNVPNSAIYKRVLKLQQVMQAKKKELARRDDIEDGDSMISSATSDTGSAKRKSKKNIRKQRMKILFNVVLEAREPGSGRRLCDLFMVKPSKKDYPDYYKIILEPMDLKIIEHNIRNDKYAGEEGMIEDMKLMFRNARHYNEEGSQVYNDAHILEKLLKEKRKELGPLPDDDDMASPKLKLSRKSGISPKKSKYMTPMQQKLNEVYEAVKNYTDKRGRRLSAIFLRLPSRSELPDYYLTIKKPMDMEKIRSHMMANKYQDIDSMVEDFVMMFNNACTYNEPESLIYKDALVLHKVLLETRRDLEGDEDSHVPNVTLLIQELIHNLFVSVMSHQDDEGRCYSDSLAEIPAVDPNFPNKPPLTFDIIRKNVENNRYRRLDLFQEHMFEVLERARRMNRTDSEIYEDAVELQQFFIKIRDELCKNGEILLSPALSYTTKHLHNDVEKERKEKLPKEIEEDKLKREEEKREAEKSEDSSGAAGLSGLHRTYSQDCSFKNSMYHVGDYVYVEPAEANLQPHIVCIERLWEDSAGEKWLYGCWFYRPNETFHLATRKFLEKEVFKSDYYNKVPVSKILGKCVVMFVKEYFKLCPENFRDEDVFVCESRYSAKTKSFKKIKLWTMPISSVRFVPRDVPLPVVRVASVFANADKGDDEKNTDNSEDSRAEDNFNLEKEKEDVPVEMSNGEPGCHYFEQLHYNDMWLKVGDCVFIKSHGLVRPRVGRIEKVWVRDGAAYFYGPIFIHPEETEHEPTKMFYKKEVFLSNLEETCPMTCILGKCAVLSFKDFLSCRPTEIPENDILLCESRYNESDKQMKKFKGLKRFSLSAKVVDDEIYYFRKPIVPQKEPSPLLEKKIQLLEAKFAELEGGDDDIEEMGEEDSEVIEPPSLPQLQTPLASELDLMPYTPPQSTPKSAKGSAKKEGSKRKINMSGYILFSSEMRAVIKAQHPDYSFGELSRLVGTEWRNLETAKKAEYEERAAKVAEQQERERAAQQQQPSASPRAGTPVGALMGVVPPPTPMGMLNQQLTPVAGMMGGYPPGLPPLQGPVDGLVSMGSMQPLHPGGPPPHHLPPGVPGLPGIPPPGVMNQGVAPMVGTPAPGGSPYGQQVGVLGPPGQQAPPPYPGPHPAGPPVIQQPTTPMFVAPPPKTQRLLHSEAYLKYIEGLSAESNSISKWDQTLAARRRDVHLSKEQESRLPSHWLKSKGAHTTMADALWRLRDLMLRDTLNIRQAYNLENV

[3] = target: T1, Bone morphogenetic protein receptor type-2 (Homo sapiens) (UniProt Q13873); assay: Selectivity interaction (KinomeScan (DiscoverX)) EUB0001049a BMPR2; conditions: at 1 µM
T1 sequence (whole entry): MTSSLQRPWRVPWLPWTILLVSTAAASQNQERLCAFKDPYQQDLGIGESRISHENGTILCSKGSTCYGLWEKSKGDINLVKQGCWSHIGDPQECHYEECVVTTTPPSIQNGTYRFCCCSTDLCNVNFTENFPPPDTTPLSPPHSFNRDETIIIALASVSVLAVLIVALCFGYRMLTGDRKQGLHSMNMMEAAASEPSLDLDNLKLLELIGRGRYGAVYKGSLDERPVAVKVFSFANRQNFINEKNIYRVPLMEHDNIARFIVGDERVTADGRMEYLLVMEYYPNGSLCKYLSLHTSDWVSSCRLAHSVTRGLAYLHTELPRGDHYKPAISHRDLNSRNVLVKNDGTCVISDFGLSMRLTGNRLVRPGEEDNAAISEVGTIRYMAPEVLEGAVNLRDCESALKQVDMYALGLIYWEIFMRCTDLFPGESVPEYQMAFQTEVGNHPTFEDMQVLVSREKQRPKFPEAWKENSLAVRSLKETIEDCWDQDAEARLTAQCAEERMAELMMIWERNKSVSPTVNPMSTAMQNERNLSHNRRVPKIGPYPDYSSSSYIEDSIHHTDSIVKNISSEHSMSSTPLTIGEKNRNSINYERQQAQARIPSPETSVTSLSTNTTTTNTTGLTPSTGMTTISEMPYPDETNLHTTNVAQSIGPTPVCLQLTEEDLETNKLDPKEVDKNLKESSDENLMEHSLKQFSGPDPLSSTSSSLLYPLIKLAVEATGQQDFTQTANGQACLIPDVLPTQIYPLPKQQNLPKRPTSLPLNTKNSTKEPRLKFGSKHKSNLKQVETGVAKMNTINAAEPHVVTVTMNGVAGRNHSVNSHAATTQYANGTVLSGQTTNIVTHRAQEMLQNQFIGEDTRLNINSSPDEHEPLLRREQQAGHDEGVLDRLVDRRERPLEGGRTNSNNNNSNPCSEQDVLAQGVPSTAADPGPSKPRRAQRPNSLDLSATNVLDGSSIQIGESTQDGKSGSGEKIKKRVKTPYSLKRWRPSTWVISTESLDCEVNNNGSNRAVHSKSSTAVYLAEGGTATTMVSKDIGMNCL

[4] = target: Dual specificity tyrosine-phosphorylation-regulated kinase 1A (Homo sapiens, UniProt Q13627); assay: Selectivity interaction (KinomeScan (DiscoverX)) EUB0001049a DYRK1A; conditions: at 1 µM
[5] = target: T2, Mitogen-activated protein kinase kinase kinase 19 (Homo sapiens) (UniProt Q56UN5); assay: Selectivity interaction (KinomeScan (DiscoverX)) EUB0000092b MAP3K19; conditions: at 10 µM
T2 sequence (whole entry): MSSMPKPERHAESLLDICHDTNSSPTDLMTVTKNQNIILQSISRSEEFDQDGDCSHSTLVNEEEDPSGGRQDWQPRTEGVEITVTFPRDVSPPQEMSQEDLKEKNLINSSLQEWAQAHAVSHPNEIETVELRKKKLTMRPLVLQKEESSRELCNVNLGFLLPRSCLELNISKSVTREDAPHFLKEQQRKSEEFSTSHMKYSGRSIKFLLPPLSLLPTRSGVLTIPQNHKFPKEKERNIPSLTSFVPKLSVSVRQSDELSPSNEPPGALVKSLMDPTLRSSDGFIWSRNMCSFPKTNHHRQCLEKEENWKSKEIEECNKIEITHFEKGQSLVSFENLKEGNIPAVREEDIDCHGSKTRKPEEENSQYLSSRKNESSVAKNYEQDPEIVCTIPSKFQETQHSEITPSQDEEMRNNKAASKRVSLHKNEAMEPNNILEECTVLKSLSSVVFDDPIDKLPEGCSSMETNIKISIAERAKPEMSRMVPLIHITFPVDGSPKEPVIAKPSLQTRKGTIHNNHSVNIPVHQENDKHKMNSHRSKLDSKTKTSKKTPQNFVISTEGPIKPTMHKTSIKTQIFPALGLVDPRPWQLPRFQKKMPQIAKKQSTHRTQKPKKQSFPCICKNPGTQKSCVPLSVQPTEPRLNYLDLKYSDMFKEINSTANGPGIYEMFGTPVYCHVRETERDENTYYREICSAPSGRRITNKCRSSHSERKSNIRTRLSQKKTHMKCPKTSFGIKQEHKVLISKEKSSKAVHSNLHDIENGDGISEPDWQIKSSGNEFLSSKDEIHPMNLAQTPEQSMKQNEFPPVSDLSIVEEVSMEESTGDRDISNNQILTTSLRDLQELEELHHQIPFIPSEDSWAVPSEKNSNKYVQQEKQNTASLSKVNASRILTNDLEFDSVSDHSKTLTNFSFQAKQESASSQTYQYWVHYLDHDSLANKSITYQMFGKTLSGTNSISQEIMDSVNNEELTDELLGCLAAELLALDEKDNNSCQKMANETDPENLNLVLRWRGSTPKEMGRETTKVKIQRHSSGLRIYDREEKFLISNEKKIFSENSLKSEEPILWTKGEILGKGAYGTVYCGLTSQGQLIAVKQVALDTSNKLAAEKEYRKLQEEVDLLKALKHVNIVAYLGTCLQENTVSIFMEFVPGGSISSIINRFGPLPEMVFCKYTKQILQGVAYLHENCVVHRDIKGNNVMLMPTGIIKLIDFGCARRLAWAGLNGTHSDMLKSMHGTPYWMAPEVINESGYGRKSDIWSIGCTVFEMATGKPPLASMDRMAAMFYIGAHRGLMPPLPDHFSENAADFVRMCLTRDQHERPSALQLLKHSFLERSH

[6] = target: Mitogen-activated protein kinase 3 (Homo sapiens, UniProt P27361); assay: Selectivity interaction (Rxn Biology Kinase assay) EUB0001632a MAPK3; conditions: at 10 µM
Mitogen-activated protein kinase 3, sequence (P27361 whole entry): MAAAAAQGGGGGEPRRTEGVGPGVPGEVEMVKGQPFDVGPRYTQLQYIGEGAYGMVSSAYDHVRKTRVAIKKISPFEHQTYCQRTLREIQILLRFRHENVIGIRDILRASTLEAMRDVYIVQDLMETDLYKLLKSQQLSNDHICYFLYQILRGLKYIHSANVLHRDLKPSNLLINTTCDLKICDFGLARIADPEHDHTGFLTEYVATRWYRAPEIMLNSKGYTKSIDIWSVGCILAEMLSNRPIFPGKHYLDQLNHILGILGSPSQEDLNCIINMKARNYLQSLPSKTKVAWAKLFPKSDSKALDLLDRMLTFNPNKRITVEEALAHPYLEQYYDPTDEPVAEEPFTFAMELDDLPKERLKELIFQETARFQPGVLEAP

Tyrosine-protein kinase Lyn, sequence (P07948 2-512 limits assumed): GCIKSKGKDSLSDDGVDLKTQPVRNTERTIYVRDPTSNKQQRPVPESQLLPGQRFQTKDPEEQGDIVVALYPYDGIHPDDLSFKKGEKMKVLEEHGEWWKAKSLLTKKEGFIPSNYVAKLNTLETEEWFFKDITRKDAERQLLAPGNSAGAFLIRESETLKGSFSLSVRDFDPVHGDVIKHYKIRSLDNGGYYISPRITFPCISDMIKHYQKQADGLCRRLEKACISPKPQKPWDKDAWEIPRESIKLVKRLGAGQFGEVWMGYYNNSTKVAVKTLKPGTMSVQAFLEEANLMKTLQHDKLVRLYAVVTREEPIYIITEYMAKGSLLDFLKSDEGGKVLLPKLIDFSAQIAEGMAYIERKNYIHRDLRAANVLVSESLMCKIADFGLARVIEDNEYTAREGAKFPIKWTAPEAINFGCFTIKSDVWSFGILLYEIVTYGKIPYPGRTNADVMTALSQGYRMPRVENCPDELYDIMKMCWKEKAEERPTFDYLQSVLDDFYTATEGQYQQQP

Structure (SMILES): N#Cc1cccc(-c2c[nH]c3ncnc(N4CCOCC4)c23)c1
% of control [1]: 91%

dTM [2]: -0.44 K
Structure (SMILES): Cc1cc(CN)cc(C)c1-c1ncn(C)c1-c1cncn1C

Structure (SMILES): COc1cc(Nc2nc(C)cc(-c3cnn4nc(OC)ccc34)n2)cc(C(F)(F)F)c1
% of control [3]: 100%
% of control [4]: 74%

Structure (SMILES): CCC(=O)N1CCN(c2ccc(-n3c(=O)ccc4cnc5ccc(-c6cnc7ccccc7c6)cc5c43)cc2C(F)(F)F)CC1
% of control [5]: 38%

% of inhibition [6]: -5.84%
Structure (SMILES): Cn1cc(-n2cnc3c(NCc4nc5cc(Cl)c(Cl)cc5[nH]4)nc(N4CCOCC4)nc32)cn1
